# Entries after “also recorded” stand apart in the source; their conditions may differ.
# Target: T1, FicD^R374H (Homo sapiens, UniProt Q9BVA6, R374H)
# T1 construct: Wild-type FicD (residues 105-458) and all mutants were expressed as N-terminal 6xHis-Sumo fusions; 6xHis-Sumo (N, cleaved yes); made in house; host or cells: Rosetta(DE3) E. coli
# T1 sequence (Q9BVA6 105-458 R374H): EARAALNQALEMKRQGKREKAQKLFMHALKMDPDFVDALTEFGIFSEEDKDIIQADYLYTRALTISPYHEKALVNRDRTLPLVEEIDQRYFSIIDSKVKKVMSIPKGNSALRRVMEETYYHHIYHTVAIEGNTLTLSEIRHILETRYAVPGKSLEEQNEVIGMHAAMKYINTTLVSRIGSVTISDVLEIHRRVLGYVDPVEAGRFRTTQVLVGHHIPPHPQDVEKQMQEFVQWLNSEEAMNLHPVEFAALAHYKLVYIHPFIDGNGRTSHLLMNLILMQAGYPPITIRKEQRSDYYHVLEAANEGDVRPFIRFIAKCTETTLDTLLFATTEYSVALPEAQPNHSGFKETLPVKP
# Assay: AMPylation of Δ26hBiP^T229A by pathogenic variant FicD^R374H
# Format: biochemical
# Details: indicated concentrations of FPP
# From the text: Fig. 5. Crystal structure of FPP inhibitor bound to FicD active site. […] FPP (cyan stick) and Mg^2+ (cyan sphere) in the pocket of FicD shown as APBS electrostatic surface with positive areas in blue, negative in red, and neutral in white (contour level: ±5 kBT/e) (Right). […] (C–E) AMPylation assays of Δ26hBiP^T229A in the presence of the indicated concentration of FPP using the pathogenic human variants (C) FicD^R371S, (D) FicD^R374H and (E) FicD^R374C. AMPylated BiP and Fic were quantified by immunodetection, and total BiP was quantified by CBB. […]
# Isothermal Titration Calorimetry
# Proteins were dialyzed against 25mM HEPES pH 7.4/100mM KCl/10% glycerol prior to titration.
# Dialyzed proteins were then spun down at 21,000G for 15 minutes at 4C to remove trace insoluble material. The protein concentration was measured spectrophotometrically and then diluted to working concentration with 25mM HEPES pH 7.4/100mM KCl/10% glycerol. MgCl2 was added to proteins to a final concentration of 4mM. ITC experiments were performed in a Micro-Cal PEAQ-ITC (Malvern Panalytical, Worcestershire, UK) calorimeter with a stirred 206.2 μL reaction cell held at 20 °C. 250μM FPP was titrated into 25uM Δ104hFicL258D with 750rpm stirring. The first injection was 0.5 μL, followed by twenty 1.9 μL injections. […]
# Thermogram and binding figures were plotted in […]
smiles,measurement,value
"CC(C)=CCC/C(C)=C/CC/C(C)=C/COP(=O)(O)OP(=O)(O)O [FPP, farnesyl-pyrophosphate]",FPP inhibition of FicD^R374H mediated AMPylation,inhibition; also recorded: inhibited

# Reference: paper PMC12974487, “Inhibition of FicD-mediated AMPylation and deAMPylation by isoprenoid diphosphates” (Proceedings of the National Academy of Sciences of the …, 2026)
